Results: PubChem BioAssay AID1996
Converted amounts (≈) assume the structure as drawn.

settings: buffer; pH 7.4; 200.0 µM

| solubility kinetic | Compound |
| --- | --- |
| 47.1 µg/mL (≈ 148 µM) | O=C(NCCCNC(=O)c1cnccn1)c1cccc(Cl)c1 |
| > 42.5 µg/mL | Cc1nn(C)c2ncc(C(N)=O)c(Oc3cccnc3)c12 |
| > 53.2 µg/mL | CCS(=O)(=O)N1CCC(C(=O)NCc2ccc3c(c2)OCO3)CC1 |
| 7.7 µg/mL (≈ 20.7 µM) | O=C(CNC(=O)c1ccc(Cl)cc1)OCN1C(=O)c2ccccc2C1=O |
| > 43.8 µg/mL | CCOC(=O)CNC(=O)c1ccc(Br)s1 |
| > 52.9 µg/mL | COc1ccc(C2C(CN3CCOCC3)C(=O)N2c2ccccc2)cc1 (stereo unspecified) |
| 8.8 µg/mL (≈ 31.5 µM) | O=[N+]([O-])c1ccc(C2CCCC/C2=N/O)c([N+](=O)[O-])c1 (stereo unspecified) |
| 2.8 µg/mL (≈ 8.82 µM) | CCNc1nc(NCC)nc(Oc2ccc(C(=O)OC)cc2)n1 |
| > 41 µg/mL | CCCNC(=O)c1ccc(COc2ccc(C)cc2)o1 |
| 33.2 µg/mL (≈ 132 µM) | CC(=O)Cc1nsc(Nc2ccc(F)cc2)n1 |
| 45.7 µg/mL (≈ 146 µM) | O=C(CCc1ccccc1)N1CCN(c2ccccc2F)CC1 |
| 39.7 µg/mL (≈ 142 µM) | CN(C)c1nc(N)c([N+](=O)[O-])c(N2CCCCCC2)n1 |
| 46.4 µg/mL (≈ 145 µM) | COc1ccc(Nc2nc(N)c([N+](=O)[O-])c(NCCO)n2)cc1 |
| > 43.3 µg/mL | Cl.O=C(CN1CCOCC1)NCc1ccc(F)cc1 |
| 36.4 µg/mL (≈ 126 µM) | O=C(Nc1cccc(Cl)c1)NC1CCS(=O)(=O)C1 (stereo unspecified) |
| > 47.8 µg/mL | Cc1cccc(NC(=O)CSCC(=O)NCc2ccco2)c1 |

| solubility kinetic | Compound |
| --- | --- |
| 7 µg/mL (≈ 20.9 µM) | CN1C(=O)NC(c2ccc(O)cc2)C2=C1CN(c1ccccc1)C2=O (stereo unspecified) |
| > 39.4 µg/mL | O=C(O)c1ccc(Cl)c(NCc2ccncc2)c1 |
| 32.7 µg/mL (≈ 104 µM) | CCN(CC)C(=O)C12CC3CC(CC(Br)(C3)C1)C2 |
| > 30 µg/mL | C=C(C)Cn1cnc2cc(C)c(C)cc21 |
| 9.8 µg/mL (≈ 26 µM) | COc1ccc(OC)c(NC(=O)c2cccc(NC(=O)c3ccccc3)c2)c1 |
| 32 µg/mL (≈ 95.3 µM) | CC(OC(=O)C1CC1)C(=O)Nc1cc(C(F)(F)F)ccc1Cl (stereo unspecified) |
| 2.5 µg/mL (≈ 7.13 µM) | O=S(=O)(c1ccc(Cl)nc1)N1CCC(Cc2ccccc2)CC1 |
| > 42.9 µg/mL | CN(CC(=O)NC1CC1)S(=O)(=O)c1ccc(F)cc1 |
| > 37 µg/mL | COc1cc(NC(N)=S)c(OC)cc1Cl |
| 41.4 µg/mL (≈ 140 µM) | Cc1ccc(C)c(S(=O)(=O)NCC(=O)N2CCCC2)c1 |
| 34.3 µg/mL (≈ 102 µM) | CC(C)[C@H](NC(=O)c1ccccc1F)C(=O)OCC(=O)NC1CC1 |
| > 45.1 µg/mL | O=S(=O)(NCCc1c[nH]c2ccccc12)c1ccccc1 |
| > 43.3 µg/mL | Cc1ccc(N2C(=O)CC(NCC3CCCO3)C2=O)cc1 (stereo unspecified) |
| 41.1 µg/mL (≈ 126 µM) | COc1ccc(C(O)(CCN2CCOCC2)c2ccccc2)cc1 (stereo unspecified) |
| > 43.9 µg/mL | O=C(NCCN1CCCCC1)Nc1ccc([N+](=O)[O-])cc1 |

The remaining lines, values behind:

| Compound | solubility kinetic |
| --- | --- |
| N#CC(C#N)=Cc1ccc(OCC(=O)N2CCOCC2)cc1 | > 44.6 µg/mL |
| O=C(Nc1cccc([N+](=O)[O-])c1)N1CCc2ccccc2C1 | 28.6 µg/mL (≈ 96.2 µM) |
| Cc1ccc(CNS(=O)(=O)c2ccccc2[N+](=O)[O-])cc1 | 38.7 µg/mL (≈ 126 µM) |
| COc1cccc(/C=C/c2ccccn2)c1O | 34 µg/mL (≈ 150 µM) |
| CC1Cc2ccccc2N1CC(=O)NC(=O)NC1CCCC1 (stereo unspecified) | 6.9 µg/mL (≈ 22.9 µM) |
| COc1ccc(C(CCO)NC(=O)c2cccs2)cc1OC (stereo unspecified) | > 48.2 µg/mL |
| CCOC(=O)C1=C(C)NC(C)=C(C(=O)OCC)C1C(=O)OCC(=O)NCc1ccco1 | > 65.2 µg/mL |
| O=C(NC1=NCCS1)c1cccc(Br)c1 | 11.3 µg/mL (≈ 39.6 µM) |
| CC(=O)Nc1ccc(-c2csc(Nc3ncccn3)n2)cc1 | 0.4 µg/mL (≈ 1.28 µM) |
| CC(=O)c1ccc(OCc2cc([N+](=O)[O-])cc3c2OCOC3)cc1 | 2.6 µg/mL (≈ 7.9 µM) |
| CC(=O)NCCc1nc2cc(NC(=O)c3cccc([N+](=O)[O-])c3)ccc2n1C | 3.5 µg/mL (≈ 9.18 µM) |
| N#Cc1cccc(NC(=O)CCN2C(=O)C3CCCCC3C2=O)c1 (stereo unspecified) | > 48.8 µg/mL |
| Cc1cnc(-n2c(=S)[nH]c3ccccc3c2=O)s1 | > 41.3 µg/mL |
| COc1ccc(C(=O)OCC(=O)c2ccc[nH]2)cc1 | 20.4 µg/mL (≈ 78.7 µM) |
| COc1cccc(NC(=O)CN2CCCCCC2)c1.Cl | 44.1 µg/mL |
| CCN(CC)CC(=O)Nc1sc(C)c(C)c1C(=O)c1ccc(C)cc1 | 4.6 µg/mL (≈ 12.8 µM) |
| O=C(Cc1ccsc1)NCc1ccccc1F | > 37.4 µg/mL |
| Cc1ccccc1OCC(=O)OCC(=O)NC1CC1 | > 39.5 µg/mL |
| O=c1cc(NCCc2ccccc2)c2ccccc2o1 | 1.1 µg/mL (≈ 4.15 µM) |
| Cc1cc(C)nc(NC(=O)c2ccc(Cl)c([N+](=O)[O-])c2)n1 | 22.1 µg/mL (≈ 72.1 µM) |
| CN(C)CCCNC(=O)c1cc(C(=O)c2ccccc2F)c[nH]1 | > 47.6 µg/mL |
| Cc1cc(C)n2nc(C(=O)OCC(=O)NCc3ccc(F)cc3)nc2n1 | > 53.6 µg/mL |
| Cc1ccc(C(=O)OCC(=O)NC(=O)c2cccn2C)cc1[N+](=O)[O-] | 1.3 µg/mL (≈ 3.76 µM) |
| OCC1CCCN(c2ncnc3scc(-c4ccccc4)c23)C1 (stereo unspecified) | 47.4 µg/mL (≈ 146 µM) |
| Cc1ccc(NC(=O)CCSCCc2ccccn2)cc1 | > 45.1 µg/mL |
| COc1cc2[nH]c(=S)n(Cc3cccs3)c(=O)c2cc1OC | < 0.4 µg/mL |
| CCc1ccccc1NC(=S)N(Cc1cccs1)C1CCCC1 | 13.9 µg/mL (≈ 40.3 µM) |
| COc1cccc(NC(=S)Nc2ccc(Br)cc2Cl)c1 | 4.6 µg/mL (≈ 12.4 µM) |

| Compound | solubility kinetic |
| --- | --- |
| Cc1ccc(C(=O)C2=C(O)C(=O)N(Cc3ccco3)C2c2cccc(Cl)c2)o1 (stereo unspecified) | > 59.7 µg/mL |
| O=C1NC(c2ccccc2O)Nc2ccccc21 (stereo unspecified) | 34.8 µg/mL (≈ 145 µM) |
| Cc1ccc(CS(=O)(=O)CCC(=O)NCCc2ccccc2)cc1 | 5.2 µg/mL (≈ 15.1 µM) |
| CC(C)c1ccccc1NC(=O)c1ccc2ncsc2c1 | 21 µg/mL (≈ 70.9 µM) |
| CC(=O)c1cn(Cc2ccc(F)cc2)c2ccccc12 | 1.9 µg/mL (≈ 7.11 µM) |
| Fc1ccc(N=Cc2ccc[nH]2)cc1 | 11 µg/mL (≈ 58.4 µM) |
| CS(=O)(=O)Nc1ccc(-c2cn3cccnc3n2)cc1 | > 43.2 µg/mL |
| Cc1cccc(NC(=O)c2ccc(COc3ccccc3)o2)n1 | 4.8 µg/mL (≈ 15.6 µM) |
| COc1ccc(NS(=O)(=O)c2cn(C)cn2)c(OC)c1 | > 44.6 µg/mL |
| Cc1cc(=O)oc2cc(OCC(=O)NCC3CCC(C(=O)O)CC3)ccc12 (stereo unspecified) | > 56 µg/mL |
| CC(=O)c1cc(C#N)c(SCC(=O)Nc2nccs2)nc1C | 0.7 µg/mL (≈ 2.11 µM) |
| COc1cccc(CN(C)CC2CCCN(CCc3ccc(Cl)cc3)C2)c1OC (stereo unspecified) | 53.3 µg/mL (≈ 128 µM) |
| Cc1ccc2oc(C(=O)N(C)Cc3cnccn3)c(C)c2c1 | > 44.3 µg/mL |
| Cc1ccc(Cl)c(NC(=O)COC(=O)c2cc[n+]([O-])cc2)c1Cl | > 53.3 µg/mL |
| COc1ccc2nc(NC(=O)C3CC(=O)N(c4ccccc4)C3)sc2c1 (stereo unspecified) | 0.7 µg/mL (≈ 1.91 µM) |
| O=C(Nc1nc2ccc([N+](=O)[O-])cc2s1)c1ccncc1 | 1.9 µg/mL (≈ 6.33 µM) |
| OCC1OC(Oc2c[nH]c3ccccc23)C(O)C(O)C1O (stereo unspecified) | > 44.3 µg/mL |
| COc1cccc(C(=O)c2c(C)c(CCC#N)n3ccccc23)c1 | 43.5 µg/mL (≈ 137 µM) |
| O=C(Nc1ccc2c(c1)OCCO2)C(=O)NC1CC1 | 30.8 µg/mL (≈ 117 µM) |
| O=C(NCc1ccncc1)NC12CC3CC(CC(C3)C1)C2 | 41.3 µg/mL (≈ 145 µM) |
| CCc1sc(C(=O)Nc2ncccc2C)cc1C | > 39.1 µg/mL |
| Cc1cnc(C(=O)NC2CCSc3ccccc32)cn1 (stereo unspecified) | 26.2 µg/mL (≈ 91.8 µM) |
| Cn1c(=O)c(C(=O)NC2CCCCCC2)c(O)c2ccccc21 | < 0.3 µg/mL |
| NC(=S)NNC(=O)COc1ccccc1O | > 36.2 µg/mL |
| COc1cccc(C(C)NC(=O)C2CCCC2)c1 (stereo unspecified) | > 37.1 µg/mL |
| Cc1cc(O)c(CN2CC=C(c3ccccc3)CC2)cc1C(C)C | 1.2 µg/mL (≈ 3.73 µM) |
| O=C1C2CCCCC2C(=O)N1c1nccs1 (stereo unspecified) | > 35.4 µg/mL |
